# Counter-ions that a name gives are not always drawn.
# Tests used:
# Format in all cases: cell-based, human
# [1] = test system: Nrf2 signaling pathway in SH-SY5Y cells; experiment: Nrf2-regulated gene expression (RT-PCR, Western blot); settings: 10 µM, within 3 h
# Experimental: Total RNA was extracted from cells using the TRIzol reagent (Invitrogen). Isolated total RNA was purified using the SV Total RNA Isolation System (Promega) according to the manufacturer’s instruction. RT-PCR was performed with QIAGEN onestep RT-PCR kit (QIAGEN). The housekeeping peptidylprolyl isomerase A (PPIA) gene was used as an internal control. PCR primers specific to each gene are as follows: ATF3, 5′-[…]-3′, and 5′-[…]-3′ (268 bp); GCLM, 5′-[…]-3′, and 5′-[…]-3′ (367 bp); HO-1, 5′-[…]-3′, and 5′-[…]-3′ (348 bp); NQO1, 5′-[…]-3′, and 5′-[…]-3′ (298 bp); Nrf2, 5′-[…]-3′, and 5′-[…]-3′ (263 bp); p21/CDKN1A, 5′-[…]-3′, and 5′-[…]-3′ (201 bp); p62/SQSTM1, 5′-[…]-3′, and 5′-[…]-3′ (330 bp); PPIA, 5′-[…]-3′, and 5′-[…]-3′ (184 bp). Amplified products were electrophoretically resolved by a 2.0% agarose gel, stained with ethidium bromide, and photographed under ultraviolet light.
# SH-SY5Y cells (3×10^5 cells) were washed twice with ice-cold PBS and incubated in 1 ml of ice-cold 10% trichloroacetic acid for 30 min. Cells were centrifuged at 22,000×g for 15 min at 4°C and lysed by pipetting in 80 µl of 9 M urea containing 2% Triton X-100 and 1% dithiothreitol. After the addition of 20 µl of 10% lithium dodecyl sulfate and 2 µl of 2 M Tris base, cell lysates were sonicated until their viscosity disappeared. […]
# [2] = test system: differentiated SH-SY5Y cells; experiment: Anti-oxidative stress-induced neuronal cell death (AOND) analysis, AlamarBlue cell viability
# Experimental: Human neuroblastoma SH-SY5Y cells (ATCC, CRL-2266) were grown in Dulbecco’s modified Eagle’s medium (DMEM) supplemented with 10% fetal bovine serum (HyClone, Thermo Fisher Scientific Inc.), 100 U/ml penicillin, and 100 µg/ml streptomycin at 37°C in 5% CO2. For differentiation, SH-SY5Y cells were seeded at a density of 0.75×10^4 cells per well in 96-well plates (Primaria, BD Falcon) for 1 day, and cultured in the medium containing 10 µM all-trans retinoic acid for additional 5 days.
# […] Then, the cells were exposed to various concentrations of cytotoxins, including oxidative stressors [menadione, 10 to 80 µM for 4 to 6 h; α-naphthoquinone, 12.5 µM for 4 h; 6-hydroxydopamine (6-OHDA), 400 µM for 4 h], protein kinase inhibitor (staurosporine, 25 µM for 6 h) and phosphatase inhibitor (okadaic acid, 1 µM for 6 h), in fresh medium. Cell viability was measured by AlamarBlue assay (Invitrogen) as described previously.
# HeLa cells = experiment: Detection of intracellular ROS, •OH and 4-HNE after oxidative insult; settings: 10 µM, 8 h, then menadione or FeSO4/H2O2 1 h
# Experimental: HeLa cells (ATCC, CCL-2) cultured on poly-L-lysine-coated coverslips were treated with WN1316 (10 µM) or vehicle (DMSO) for 8 h and incubated with 10 µM H2DCF-DA for 30 min. Cells were then exposed to 60 µM menadione for 1 h. Confocal fluorescence images were obtained using Zeiss LSM 700 confocal microscope.
# To detect the hydroxyl radical (•OH), we used hydroxyphenyl fluorescein (HPF) as a specific probe. In brief, HeLa cells were treated with WN1316 (10 µM) or vehicle (DMSO) for 8 h and then incubated with 100 µM HPF for 30 min at 37°C in Hanks’s buffer (Invitrogen). After washing with phosphate-buffered saline (PBS), the reaction buffer (0.1 mM FeSO4, 0.2 mM H2O2) was added, and cells were incubated for 1 h at 37°C to generate •OH. Confocal fluorescence images were obtained using the lambda mode of Zeiss LSM 510 Meta confocal microscope and analytical software.
# HeLa cells cultured on poly-L-lysine-coated coverslips were treated with 10 µM WN1316 or DMSO for 8 h, and then incubated in fresh medium containing 60 µM menadione for 1 h. Cells were fixed in 0.1% glutaraldehyde/4% paraformaldehyde/PBS for 10 min, rinsed three times with PBS, and permeabilized with 0.1% Triton-X-100 for 15 min. […]
structure (smiles),measurement,setting,value
"Cc1cc(C)c(N(C)CC(=O)Nc2nc(-c3ccccn3)c[nH]2)c(C)c1 [WN1316, 2-[mesityl(methyl)amino]-N-[4-(pyridin-2-yl)-1H-imidazol-2-yl] acetamide trihydrochloride]","mRNA of Nrf2-regulated genes (Nrf2, ATF3, HO-1, GCLM, NQO1, p21, p62)",[1],increased
same,pre-treatment time required for AOND activity,"[2]; 6 µM WN1316, then 60 µM menadione 4 h",> 8 h
same,concentration that militates against cytoprotection,"[2]; 8 h treatment, then 60 µM menadione 4 h",> 20 µM
same,cytoprotection against oxidative stress-induced cell death,"[2]; compound 24 h, then 60 µM menadione 4 h, compared with mother compound CPN-9",marked cytoprotection
same,selectivity of protection against various cytotoxins,"[2]; menadione, α-naphthoquinone, 6-OHDA vs staurosporine, okadaic acid, 8 h pretreatment",greatest protection against oxidative stress-induced damage
same,level of intracellular •OH and lipid peroxidation,HeLa cells,markedly reduced their levels
